Tests used:
MT4 = test: Cytotoxicity against MT4 cells; type: functional; settings: Homo sapiens
[1] = target: Human immunodeficiency virus type 1 integrase (Human immunodeficiency virus 1, UniProt Q7ZJM1); test: Inhibition of strand transfer activity in HIV1 integrase
[2] = system: Human immunodeficiency virus 1; test: Antiviral activity against HIV1 3B in MT4 cells; type: functional, organism-based; settings: Human immunodeficiency virus 1, 3B

Chain of Human immunodeficiency virus type 1 integrase (Q7ZJM1 whole entry): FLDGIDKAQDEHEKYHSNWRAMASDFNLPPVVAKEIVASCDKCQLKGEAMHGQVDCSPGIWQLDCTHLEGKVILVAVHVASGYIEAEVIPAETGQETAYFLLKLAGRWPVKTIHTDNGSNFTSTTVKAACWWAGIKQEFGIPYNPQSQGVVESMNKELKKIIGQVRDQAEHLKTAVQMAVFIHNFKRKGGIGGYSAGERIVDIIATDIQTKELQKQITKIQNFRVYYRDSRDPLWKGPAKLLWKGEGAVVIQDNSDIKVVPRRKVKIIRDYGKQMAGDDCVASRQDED

Row | Structure (SMILES) | CC50 (MT4) | IC50 [1] | EC50 [2] | IC50 [2]
1 | COc1cnc2c(O)c3c(c(OC)c2c1)CN(Cc1ccc(F)cc1)C3=O | 2.1 µM | 0.093 µM | 0.07 µM | 
2 | CN(C)S(=O)(=O)Oc1c2c(c(O)c3ncccc13)C(=O)N(Cc1ccc(F)cc1)C2 | 1.4 µM |  | 0.007 µM | 
3 | CN(C)S(=O)(=O)Oc1c2c(c(O)c3nccnc13)C(=O)N(Cc1ccc(F)cc1)C2 | 2.7 µM | 0.033 µM | 0.54 µM | 
4 | COc1c2c(c(O)c3ncccc13)C(=O)N(Cc1ccc(F)cc1)C2 | 5.1 µM |  |  | 
5 | COc1c2c(c(O)c3ncn(Cc4ccccc4)c13)C(=O)N(Cc1ccc(F)cc1)C2 | 25 µM | 24 µM |  | > 10 µM
6 | COc1c2c(c(O)c3c1NCCN3)C(=O)N(Cc1ccc(F)cc1)C2 |  | 0.85 µM |  | > 10 µM
7 | COc1c2c(c(O)c3nccnc13)C(=O)N(Cc1ccc(F)cc1)C2 | 87 µM | 0.21 µM | 3.55 µM | 
8 | COc1c2c(c(O)c3ncc(F)cc13)C(=O)N(Cc1ccc(F)cc1)C2 | 33.3 µM | 0.0072 µM |  | 1.54 µM
